Results on nine compounds are retold here after PubChem BioAssay (NCI).

Several values for one entry are separate records, joined by “and”; a condition that tells them apart may be missing. Identical values can stand only once.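 Protocol summary: plate cells (96-well), add compound at 5 concentrations, incubate 48 h, interpolate endpoints linearly. The concentration for 50% growth inhibition is given as GI50. TGI denotes the concentration required for complete inhibition of growth.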

Among the test systems are SNB-75 CNS; RXF 393 renal; T-47D breast; SNB-19 CNS; HOP-18 NSCLC; SK-MEL-5 melanoma; COLO 205 colon; LOX IMVI melanoma; LXFL 529 NSCLC; BT-549 breast.
Test in all cases: NCI tumour cell line growth inhibition, 48 h

With `CC1CC(C)CC(C)C(O)/C(C#N)=C/C=C/CC(C2CCCC2C(=O)O)OC(=O)CC(O)C(C)C1` (stereo not drawn), the GI50 is 26.7 nM in the experiment with SNB-75 CNS; 3.63 nM in the experiment on RXF 393 renal; 5.95 nM with T-47D breast; 23.2 nM in the experiment on SNB-19 CNS; 28.2 nM and 23.2 nM in the experiment on SK-MEL-5 melanoma; 0.0565 µM with COLO 205 colon. Besides, the GI50 was 0.0162 µM with LOX IMVI melanoma and 50.1 nM in the experiment on BT-549 breast. Further, the TGI is 0.0853 µM and 0.11 µM in the experiment on SNB-75 CNS; 0.0304 µM and 0.0273 µM in the experiment on RXF 393 renal; 49 nM and < 16.6 nM with T-47D breast; 0.109 µM and 0.0359 µM in the experiment on SNB-19 CNS; 0.0612 µM in the experiment on HOP-18 NSCLC; 0.122 µM and 0.0932 µM in the experiment with SK-MEL-5 melanoma. The TGI in the experiment on COLO 205 colon is 0.27 µM and 0.412 µM; with LOX IMVI melanoma it was 0.0479 µM and 0.0213 µM; in the experiment with LXFL 529 NSCLC it was 0.0397 µM; with BT-549 breast it was 636 nM and 321 nM.
As for `O=C(O)CCNS(=O)(=O)c1ccc(NC(=O)c2ccccc2)cc1`, the TGI in the experiment on SNB-75 CNS, with RXF 393 renal, in the experiment on SNB-19 CNS, with HOP-18 NSCLC, with SK-MEL-5 melanoma and in the experiment with COLO 205 colon was greater than 100 µM each time. In addition, the TGI in the experiment with LOX IMVI melanoma and in the experiment on LXFL 529 NSCLC was greater than 100 µM each time.
Take `Cc1ccc(S(=O)(=O)SC/C=C\CSS(=O)(=O)c2ccc(C)cc2)cc1`: the TGI in the experiment on SNB-75 CNS is greater than 100 µM; in the experiment with RXF 393 renal, 77.1 µM and 36.6 µM; with T-47D breast, greater than 100000 nM; in the experiment with SNB-19 CNS, > 89.3 µM and 77.7 µM; in the experiment on HOP-18 NSCLC, > 100 µM and 82.5 µM; in the experiment with SK-MEL-5 melanoma, greater than 100 µM. Besides, the TGI in the experiment with COLO 205 colon is 33.1 µM and 33.6 µM; in the experiment on LOX IMVI melanoma, 33.2 µM and 29.1 µM; with LXFL 529 NSCLC it was > 67.8 µM and 33.9 µM; in the experiment with BT-549 breast it was 25400 nM. Further, the GI50 in the experiment with HOP-18 NSCLC is > 100 µM and 35.6 µM; with COLO 205 colon, 8.94 µM and 18.8 µM; with LOX IMVI melanoma, 4.68 µM and 13.5 µM; with LXFL 529 NSCLC, 8.61 µM and 17.5 µM.
`CCOC(=O)Cc1nc2ccc3c(c2[nH]c1=O)C(=O)c1ccccc1C3=O`: the TGI with SNB-75 CNS is greater than 100 µM; with RXF 393 renal, 63.1 µM; in the experiment with SNB-19 CNS, greater than 100 µM; in the experiment with HOP-18 NSCLC, 91.6 µM; in the experiment on SK-MEL-5 melanoma it was greater than 100 µM; with COLO 205 colon, greater than 100 µM. In addition, the TGI in the experiment on LOX IMVI melanoma and with LXFL 529 NSCLC was greater than 100 µM each time.
With `O=C(/C=C/c1ccccc1)Oc1cccc2cccnc12`, the TGI in the experiment with SNB-75 CNS is greater than 71 µM; in the experiment with RXF 393 renal it was greater than 85.4 µM; in the experiment with SNB-19 CNS, greater than 75.2 µM; in the experiment with HOP-18 NSCLC it was greater than 100 µM; with SK-MEL-5 melanoma it was 24 µM; in the experiment on COLO 205 colon, 21.1 µM. The TGI with LOX IMVI melanoma was greater than 100 µM; in the experiment with LXFL 529 NSCLC, 52.2 µM.
As to `COC(=O)c1sc(C(=O)OC)c2c1CS(=O)C2`, the TGI in the experiment on SNB-75 CNS, with RXF 393 renal, in the experiment with SNB-19 CNS, in the experiment on HOP-18 NSCLC, in the experiment on SK-MEL-5 melanoma and in the experiment on COLO 205 colon was greater than 100 µM each time. For the same compound, the TGI in the experiment on LOX IMVI melanoma and in the experiment with LXFL 529 NSCLC was greater than 100 µM throughout.
On to `C=C(c1ccccc1)C1(O)CCCCC1N` (stereo not drawn), for which the TGI with SNB-75 CNS, with RXF 393 renal, with SNB-19 CNS, with HOP-18 NSCLC, in the experiment on SK-MEL-5 melanoma and in the experiment with COLO 205 colon was greater than 100 µM throughout. Besides, the TGI in the experiment on LOX IMVI melanoma and with LXFL 529 NSCLC was greater than 100 µM each time.
Take `COC(=O)/C(=N\NC(C)(C)C)C(C(=O)OC)C(=O)C(=O)Nc1cc(Cl)ccc1Cl` (stereo not drawn): the TGI in the experiment with SNB-75 CNS, in the experiment with RXF 393 renal, in the experiment with SNB-19 CNS, in the experiment on HOP-18 NSCLC, in the experiment with SK-MEL-5 melanoma and with COLO 205 colon was greater than 100 µM each time. The TGI in the experiment on LOX IMVI melanoma and in the experiment with LXFL 529 NSCLC was greater than 100 µM each time.
For `CCOC(=O)NC(=O)c1cn(CCN2CCN(C(=O)NCCCCCCNC(=O)N3CCN(CCn4cc(C(=O)NC(=O)OCC)c(=O)[nH]c4=O)CC3)CC2)c(=O)[nH]c1=O`, the TGI with SNB-75 CNS, with RXF 393 renal, in the experiment with SNB-19 CNS, in the experiment on HOP-18 NSCLC, with SK-MEL-5 melanoma and in the experiment with COLO 205 colon was greater than 100 µM throughout. Further, the TGI in the experiment on LOX IMVI melanoma and in the experiment with LXFL 529 NSCLC was greater than 100 µM in each case.
